Experimental data: article PMC10093438, “α-Mangostin Promotes In Vitro and In Vivo Degradation of Androgen Receptor and AR-V7 Splice Variant in Prostate Cancer Cells” (Cancers, 2023)

Target: T1, BiP (GRP78) (Homo sapiens, UniProt P11021)
T1 construct: gene HSPA5; recombinant His-GST-BiP (BiP-N-His-GST), expressed in E. coli
Experiment: SPR (Biacore T200, His-capture plus amine coupling on NTA chip)
Assay type: binding

T1 sequence (P11021 19-654): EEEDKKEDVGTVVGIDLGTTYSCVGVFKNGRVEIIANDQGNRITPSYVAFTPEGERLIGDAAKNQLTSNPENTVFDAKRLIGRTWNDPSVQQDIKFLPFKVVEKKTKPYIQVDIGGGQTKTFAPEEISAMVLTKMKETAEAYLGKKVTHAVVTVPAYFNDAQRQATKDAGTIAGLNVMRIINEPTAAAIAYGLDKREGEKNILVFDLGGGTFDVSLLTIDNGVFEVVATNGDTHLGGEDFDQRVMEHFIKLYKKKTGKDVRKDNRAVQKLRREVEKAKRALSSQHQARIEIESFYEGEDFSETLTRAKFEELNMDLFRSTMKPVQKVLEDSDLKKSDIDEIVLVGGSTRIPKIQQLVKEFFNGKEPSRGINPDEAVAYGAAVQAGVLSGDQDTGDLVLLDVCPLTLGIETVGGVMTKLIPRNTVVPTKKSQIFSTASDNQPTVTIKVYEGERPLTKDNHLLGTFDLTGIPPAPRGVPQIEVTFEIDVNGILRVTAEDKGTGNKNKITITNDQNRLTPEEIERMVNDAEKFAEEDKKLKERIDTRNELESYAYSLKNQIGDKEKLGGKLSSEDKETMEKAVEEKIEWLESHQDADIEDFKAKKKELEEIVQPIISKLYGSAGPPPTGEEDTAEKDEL

**Q.** For `COc1c(O)cc2oc3cc(O)c(CC=C(C)C)c(O)c3c(=O)c2c1CC=C(C)C` [α-Mangostin], which Kd is on record?
**A.** Its Kd is 21.7 µM.
